Laboratory results: patent US9399638B2, “Substituted pyridine compounds as CRAC modulators” (LUPIN LIMITED, priority 2012, dated 2016)

These compounds were tested on IL-2 secretion by Jurkat T cells (assay: Inhibition of IL-2 secretion). Settings: Homo sapiens; Jurkat T cells stimulated with PHA, 20 to 24 hours, IL-2 by ELISA.
Assay type: cell-based
Protocol: The CRAC channel modulatory activity of the compounds were thus evaluated by measuring the secretion of IL-2 by antigen stimulated T-cells in vitro. Alternatively, such activity can also be evaluated by assay methods known to one skilled in the art.
Inhibition of IL-2 secretion: Jurkat T cells were seeded at a density of 0.5 to 1 million cells per well in RPMI medium. Test compounds from this invention were added to the cells at different concentrations. This was followed by the addition of PHA, a T cell mitogen after 10 minutes. The cells were then incubated for 20 to 24 hours in a CO2 incubator at 37° C. After incubation with the compounds, cells were centrifuged, the supernatant was collected and processed for ELISA to quantitate the amount of IL-2 secreted. A commercial ELISA kit (R&D Systems, Inc. Minneapolis, Minn., USA) was used to estimate the IL-2 concentrations. Amount of IL-2 secreted by cells stimulated with PHA was considered as a 100% maximal signal and the decrease in amount of IL-2 secreted by cells treated with the test compounds was expressed as percent inhibition of the maximal signal. The dose response data was analyzed using 4-parametric sigmoidal dose response (variable slope) curve—fit.

| SMILES | IC50 [nM] |
| --- | --- |
| Cc1ncc(-c2nn(C)c(=O)o2)cc1-c1ccc(NC(=O)c2c(F)cccc2F)cc1 [Example 1, 2,6-Difluoro-N-(4-(2-methyl-5-(4-methyl-5-oxo-4,5-dihydro-1,3,4-oxadiazol-2-yl)pyridin-3-yl)phenyl)benzamide] | 100 to 1000 |
| CCc1ncc(-c2nn(C)c(=O)o2)cc1-c1ccc(NC(=O)c2c(F)cccc2F)cc1 [Example 2, N-(4-(2-ethyl-5-(4-methyl-5-oxo-4,5-dihydro-1,3,4-oxadiazol-2-yl)pyridin-3-yl)phenyl)-2,6-difluorobenzamide] | < 100 |
| CCc1ncc(-c2nn(C)c(=O)o2)cc1-c1ccc(C(=O)Nc2c(F)cccc2F)cc1 [Example 3, N-(2,6-Difluorophenyl)-4-(2-ethyl-5-(4-methyl-5-oxo-4,5-dihydro-1,3,4-oxadiazol-2-yl)pyridin-3-yl)benzamide] | 100 to 1000 |
| Cn1nc(-c2cnc(C3CC3)c(-c3ccc(NC(=O)c4c(F)cccc4F)cc3)c2)oc1=O [Example 4, N-(4-(2-Cyclopropyl-5-(4-methyl-5-oxo-4,5-dihydro-1,3,4-oxadiazol-2-yl)pyridin-3-yl)phenyl)-2,6-difluorobenzamide] | < 100 |
| Cn1nc(-c2cnc(C3CC3)c(-c3ccc(C(=O)Nc4c(F)cccc4F)cc3)c2)oc1=O [Example 5, 4-(2-cyclopropyl-5-(4-methyl-5-oxo-4,5-dihydro-1,3,4-oxadiazol-2-yl)pyridin-3-yl)-N-(2,6-difluorophenyl)benzamide] | 100 to 1000 |
| COc1ncc(-c2nn(C)c(=O)o2)cc1-c1ccc(NC(=O)c2c(F)cccc2F)cc1 [Example 6, 2,6-Difluoro-N-(4-(2-methoxy-5-(4-methyl-5-oxo-4,5-dihydro-1,3,4-oxadiazol-2-yl)pyridin-3-yl)phenyl)benzamide] | < 100 |
| Cn1nc(-c2cnc(C(F)(F)F)c(-c3ccc(NC(=O)c4c(F)cccc4F)cc3)c2)oc1=O [Example 7, 2,6-difluoro-N-(4-(5-(4-methyl-5-oxo-4,5-dihydro-1,3,4-oxadiazol-2-yl)-2-(trifluoromethyl)pyridin-3-yl)phenyl)benzamide] | < 100 |
| Cc1cc(NC(=O)c2c(F)cccc2F)ccc1-c1cc(-c2nn(C)c(=O)o2)cnc1C(F)(F)F [Example 8, 2,6-difluoro-N-(3-methyl-4-(5-(4-methyl-5-oxo-4,5-dihydro-1,3,4-oxadiazol-2-yl)-2-(trifluoromethyl)pyridin-3-yl)phenyl)benzamide] | 100 to 1000 |
| Cn1nc(-c2cnc(C(F)(F)F)c(-c3ccc(NC(=O)c4c(F)cccc4Cl)cc3)c2)oc1=O [Example 9, 2-Chloro-6-fluoro-N-(4-(5-(4-methyl-5-oxo-4,5-dihydro-1,3,4-oxadiazol-2-yl)-2-(trifluoromethyl)pyridin-n-3-yl)phenyl)benzamide] | 100 to 1000 |
| CNc1ncc(-c2nn(C)c(=O)o2)cc1-c1ccc(NC(=O)c2c(F)cccc2F)cc1 [Example 10, 2,6-Difluoro-N-(4-(5-(4-methyl-5-oxo-4,5-dihydro-1,3,4-oxadiazol-2-yl)-2-(methylamino)pyridin-3-yl)phenyl)benzamide] | < 100 |
| CNc1ncc(-c2nn(C)c(=O)o2)cc1-c1ccc(NC(=O)c2c(F)cccc2Cl)cc1 [Example 11, 2-Chloro-6-fluoro-N-(4-(5-(4-methyl-5-oxo-4,5-dihydro-1,3,4-oxadiazol-2-yl)-2-(methylamino)pyridin-3-yl)phenyl)benzamide] | < 100 |
| CNc1ncc(-c2nn(C)c(=O)o2)cc1-c1ccc(NC(=O)c2c(C)cccc2F)cc1 [Example 12, 2-Fluoro-6-methyl-N-(4-(5-(4-methyl-5-oxo-4,5-dihydro-1,3,4-oxadiazol-2-yl)-2-(methylamino)pyridin-3-yl)phenyl)benzamide] | < 100 |
| CNc1ncc(-c2nn(C)c(=O)o2)cc1-c1ccc(NC(=O)c2c(F)cccc2F)cc1C [Example 13, 2,6-Difluoro-N-(3-methyl-4-(5-(4-methyl-5-oxo-4,5-dihydro-1,3,4-oxadiazol-2-yl)-2-(methylamino)pyridin-3-yl)phenyl)benzamide] | 100 to 1000 |
| Cn1nc(-c2cncc(-c3ccc(NC(=O)c4c(F)cccc4F)cc3)c2)oc1=O [Example 14, 2,6-Difluoro-N-(4-(5-(4-methyl-5-oxo-4,5-dihydro-1,3,4-oxadiazol-2-yl)pyridin-3-yl)phenyl)benzamide] | > 1000 |
| Cc1cc(NC(=O)c2c(F)cccc2F)ccc1-c1cncc(-c2nn(C)c(=O)o2)c1 [Example 15, 2,6-Difluoro-N-(3-methyl-4-(5-(4-methyl-5-oxo-4,5-dihydro-1,3,4-oxadiazol-2-yl)pyridin-3-yl)phenyl)benzamide] | < 100 |
| CCc1c(-c2ccc(NC(=O)c3c(F)cccc3F)cc2)cncc1-c1nn(C)c(=O)o1 [Example 16, N-(4-(4-Ethyl-5-(4-methyl-5-oxo-4,5-dihydro-1,3,4-oxadiazol-2-yl)pyridin-3-yl)phenyl)-2,6-difluorobenzamide] | 100 to 1000 |

| SMILES | IC50 [nM] |
| --- | --- |
| CCc1c(-c2ccc(C(=O)Nc3c(F)cccc3F)cc2)cncc1-c1nn(C)c(=O)o1 [Example 17, N-(2,6-Difluorophenyl)-4-(4-ethyl-5-(4-methyl-5-oxo-4,5-dihydro-1,3,4-oxadiazol-2-yl)pyridin-3-yl)benzamide] | > 1000 |
| CCc1c(-c2nn(C)c(=O)o2)ccnc1-c1ccc(NC(=O)c2c(F)cccc2F)cc1 [Example 18, N-(4-(3-Ethyl-4-(4-methyl-5-oxo-4,5-dihydro-1,3,4-oxadiazol-2-yl)pyridin-2-yl)phenyl)-2,6-difluorobenzamide] | > 1000 |
| CCc1c(-c2nn(C)c(=O)o2)ccnc1-c1ccc(C(=O)Nc2c(F)cccc2F)cc1 [Example 19, N-(2,6-Difluorophenyl)-4-(3-ethyl-4-(4-methyl-5-oxo-4,5-dihydro-1,3,4-oxadiazol-2-yl)pyridin-2-yl)benzamide] | > 1000 |
| Cc1c(-c2nn(C)c(=O)o2)ccnc1-c1ccc(NC(=O)c2c(F)cccc2F)cc1 [Example 20, 2,6-Difluoro-N-(4-(3-methyl-4-(4-methyl-5-oxo-4,5-dihydro-1,3,4-oxadiazol-2-yl)pyridin-2-yl)phenyl)benzamide] | > 1000 |
| CCc1cnc(-c2ccc(NC(=O)c3c(F)cccc3F)cc2)cc1-c1nn(C)c(=O)o1 [Example 21, N-(4-(5-Ethyl-4-(4-methyl-5-oxo-4,5-dihydro-1,3,4-oxadiazol-2-yl)pyridin-2-yl)phenyl)-2,6-difluorobenzamide] | > 1000 |
| CCc1cnc(-c2ccc(C(=O)Nc3c(F)cccc3F)cc2)cc1-c1nn(C)c(=O)o1 [Example 22, N-(2,6-Difluorophenyl)-4-(5-ethyl-4-(4-methyl-5-oxo-4,5-dihydro-1,3,4-oxadiazol-2-yl)pyridin-2-yl)benzamide] | > 1000 |
| Cc1cc(-c2nn(C)c(=O)o2)cc(-c2ccc(NC(=O)c3c(F)cccc3F)cc2)n1 [Example 23, 2,6-Difluoro-N-(4-(6-methyl-4-(4-methyl-5-oxo-4,5-dihydro-1,3,4-oxadiazol-2-yl)pyridin-2-yl)phenyl)benzamide] | > 1000 |
| Cn1nc(-c2cc(Cl)cc(-c3ccc(NC(=O)c4c(F)cccc4F)cc3)n2)oc1=O [Example 24, N-(4-(4-Chloro-6-(4-methyl-5-oxo-4,5-dihydro-1,3,4-oxadiazol-2-yl)pyridin-2-yl)phenyl)-2,6-difluorobenzamide] | > 1000 |
| CCOc1cc(-c2ccc(NC(=O)c3c(F)cccc3F)cc2)nc(-c2nn(C)c(=O)o2)c1 [Example 25, N-(4-(4-Ethoxy-6-(4-methyl-5-oxo-4,5-dihydro-1,3,4-oxadiazol-2-yl)pyridin-2-yl)phenyl)-2,6-difluorobenzamide] | > 1000 |
| Cn1nc(-c2cc(-c3ccc(NC(=O)c4c(F)cccc4F)cc3)ccn2)oc1=O [Example 26, 2,6-Difluoro-N-(4-(2-(4-methyl-5-oxo-4,5-dihydro-1,3,4-oxadiazol-2-yl)pyridin-4-yl)phenyl)benzamide] | > 1000 |
| Cc1cc(-c2nn(C)c(=O)o2)ncc1-c1ccc(NC(=O)c2c(F)cccc2F)cc1 [Example 27, 2,6-Difluoro-N-(4-(4-methyl-6-(4-methyl-5-oxo-4,5-dihydro-1,3,4-oxadiazol-2-yl)pyridin-3-yl)phenyl)benzamide] | 100 to 1000 |
| Cc1nnsc1C(=O)Nc1ccc(-c2cc(-c3nn(C)c(=O)o3)cnc2C2CC2)cc1 [Example 28, N-(4-(2-Cyclopropyl-5-(4-methyl-5-oxo-4,5-dihydro-1,3,4-oxadiazol-2-yl)pyridin-3-yl)phenyl)-4-methyl-1,2,3-thiadiazole-5-carboxamide] | 100 to 1000 |
| CCc1ncc(-c2nn(C)c(=O)o2)cc1-c1ccc(NC(=O)c2c(F)cccc2F)cc1C [Example 29, N-(4-(2-Ethyl-5-(4-methyl-5-oxo-4,5-dihydro-1,3,4-oxadiazol-2-yl)pyridin-3-yl)-3-methylphenyl)-2,6-difluorobenzamide] | < 100 |
| CCc1ncc(-c2nn(C)c(=O)o2)cc1-c1ccc(NC(=O)c2c(F)cccc2F)nc1 [Example 30, N-(2′-ethyl-5′-(4-methyl-5-oxo-4,5-dihydro-1,3,4-oxadiazol-2-yl)-[3,3′-bipyridin]-6-yl)-2,6-difluorobenzamide] | < 100 |
| CCc1ncc(-c2nn(C)c(=O)o2)cc1-c1ccc(NC(=O)c2c(F)cccc2F)cn1 [Example 31, N-(2′-ethyl-5′-(4-methyl-5-oxo-4,5-dihydro-1,3,4-oxadiazol-2-yl)-[2,3′-bipyridin]-5-yl)-2,6-difluorobenzamide] | 100 to 1000 |
